Reference: patent publication US20220235008A1, “PLEUROMULIN 7-CHLORO-1-CYCLOPROPYL-6-FLUORO-1,4-DIHYDRO-4-OXOQUINOLINE-3-CARBOXYLIC ACID ESTER WITH ANTIBACTERIAL ACTIVITY AND A METHOD OF PREPARING THE SAME” (SHAANXI UNIVERSITY OF SCIENCE AND TECHNOLOGY, priority 2021, published 2022)

What was measured:
Type in all cases: cell-based
[1] = tested on: multi-resistant Staphylococcus aureus 206 (MRSA-206); test: paper diffusion method drug sensitivity test, MRSA-206; conditions: 30 μg/tablet; for Zone of inhibition, MRSA-206: paper 6.35 mm diameter, LB plate, 37° C., 24 h, >17 mm sensitive, 15 mm-16 mm intermediary, <14 mm drug resistance; for inhibitory effect (in words) on multi-drug resistant Staphylococcus aureus 206: paper diffusion, summary of FIGS. 1-3 and Table 1
Description: (§1) The antimicrobial efficacy was determined by a paper diffusion method drug sensitivity test.
(§2) Experimental strains: multi-resistant Staphylococcus aureus 206 (MRSA-206), multi-resistant Staphylococcus aureus 575 (MRSA-575), multi-resistant Staphylococcus aureus 596 (MRSA-596). The experimental strain was identified by Huashan Hospital Affiliated to Fudan University (Institute of Antibiotic of Fudan University).
(§3) Drug sensitive paper: The drug sensitive paper was a special drug sensitive paper with a diameter of 6.35 mm and a water absorption of 0.02 mL. The control drug was vancomycin (30 μg/tablet); the test drugs were pleuromulin (30 μg/tablet), 7-chloro-1-cyclopropyl-6-fluoro-1,4-dihydro-4-oxoquinoline-3-carboxylic acid (30 μg/tablet) and pleuromulin 7-chloro-1-cyclopropyl-6-fluoro-1,4-dihydro-4-oxoquinoline-3-carboxylic acid ester (30 μg/tablet).
(§4) Reagents: LB agar medium, LA broth medium, 0.5% DMSO solution.
(§5) The experimental strains were inoculated in non-selective medium and placed in air at 37° C. for 24 h. A single colony that grows well and inoculate it into broth medium was incubate at 35° C.±2° C. for 6 hours, and LA broth medium was used to calibrate the concentration of the bacterial solution to 0.5 Mie turbidimetric tube (1.5×10^8 CFU/mL). A bacterial suspension was obtained.
(§6) LB dry powder was weighed, sterilized at 103.4 Kpa, 121.3° C. high-pressure steam for 15 min, and then placed it in a 40° C.-50° C. water bath. A sterile empty plate (inner diameter 9 cm) was placed on the surface of the ultra-clean table water table, and […] to the plate. The thickness of each plate was 3 mm to 4 mm. After the plate was cooled at room temperature, it was stored in the refrigerator at 2° C.-8° C. A sterile cotton swab was used to dip the bacterial solution and to evenly coat the surface of the LB plate 3 times. After inoculation of the bacterial suspension, the LB plate was dried at room temperature for 3 min to 5 min. Sterile forceps were used to closely attach the antibacterial drug paper to the dish. The dish was put upside down and placed in a 37° C. incubator for 24 h. The results were observed by measuring the diameter. Taking 0.5% DMSO solution as a negative control, the antibacterial activity is expressed by the diameter of the inhibition zone. The inhibition zone >17 mm, sensitive; the inhibition zone of 15 mm-16 mm, intermediary; the inhibition zone <14 mm, drug resistance.

[2] = tested on: multi-resistant Staphylococcus aureus 575 (MRSA-575); test: paper diffusion method drug sensitivity test, MRSA-575; conditions: 30 μg/tablet; for Zone of inhibition, MRSA-575: paper 6.35 mm diameter, LB plate, 37° C., 24 h, >17 mm sensitive, 15 mm-16 mm intermediary, <14 mm drug resistance; for inhibitory effect (in words) on multi-drug resistant Staphylococcus aureus 575: paper diffusion, summary of FIGS. 1-3 and Table 1
Description: as §1, §2, §3, §4, §5, §6

[3] = tested on: multi-resistant Staphylococcus aureus 596 (MRSA-596); test: paper diffusion method drug sensitivity test, MRSA-596; conditions: 30 μg/tablet; for Zone of inhibition, MRSA-596: paper 6.35 mm diameter, LB plate, 37° C., 24 h, >17 mm sensitive, 15 mm-16 mm intermediary, <14 mm drug resistance; for inhibitory effect (in words) on multi-drug resistant Staphylococcus aureus 596: paper diffusion, summary of FIGS. 1-3 and Table 1
Description: as §1, §2, §3, §4, §5, §6

C=C[C@]1(C)C[C@@H](OC(=O)COC(=O)C2CN(C3CC3)c3cc(Cl)c(F)cc3C2=O)[C@]2(C)CC[C@@H](C)[C@@]3(CCC(=O)[C@@H]23)[C@@H](C)[C@@H]1O (stereo partly drawn) [2-(((3aS,4R,5S,6S,8R,9R,9aR,12R)-5-hydroxy-4,6,9,12-tetramethyl-1-oxo-6-vinyldecahydro-3a, 9-propanocyclopenta[8]annulen-8-yl)oxy)-2-oxoethyl-7-chloro-1-cyclopropyl-6-fluoro-4-oxo-1,2,3,4-tetrahydroquinoline-3-carboxylate]
Zone of inhibition, MRSA-206 [1]: 16 mm | inhibitory effect (in words) on multi-drug resistant Staphylococcus aureus 206 [1]: strong inhibitory effects | Zone of inhibition, MRSA-575 [2]: 12 mm | inhibitory effect (in words) on multi-drug resistant Staphylococcus aureus 575 [2]: strong inhibitory effects | Zone of inhibition, MRSA-596 [3]: 25 mm | inhibitory effect (in words) on multi-drug resistant Staphylococcus aureus 596 [3]: strong inhibitory effects

O=C(O)c1cn(C2CC2)c2cc(Cl)c(F)cc2c1=O [7-Chloro-1-cyclopropyl-6-fluoro-1,4-dihydro-4-oxoquinoline-3-carboxylic acid]
Zone of inhibition, MRSA-206 [1]: 0 mm | inhibitory effect (in words) on multi-drug resistant Staphylococcus aureus 206 [1]: no inhibitory effect | Zone of inhibition, MRSA-575 [2]: 0 mm | inhibitory effect (in words) on multi-drug resistant Staphylococcus aureus 575 [2]: no inhibitory effect | Zone of inhibition, MRSA-596 [3]: 0 mm | inhibitory effect (in words) on multi-drug resistant Staphylococcus aureus 596 [3]: no inhibitory effect

C=C[C@]1(C)C[C@@H](OC(=O)CO)[C@]2(C)[C@H](C)CC[C@]3(CCC(=O)[C@H]32)[C@@H](C)[C@@H]1O [Pleuromulin]
Zone of inhibition, MRSA-206 [1]: 0 mm | inhibitory effect (in words) on multi-drug resistant Staphylococcus aureus 206 [1]: no inhibitory effect | Zone of inhibition, MRSA-575 [2]: 0 mm | inhibitory effect (in words) on multi-drug resistant Staphylococcus aureus 575 [2]: no inhibitory effect | Zone of inhibition, MRSA-596 [3]: 0 mm | inhibitory effect (in words) on multi-drug resistant Staphylococcus aureus 596 [3]: no inhibitory effect

CN[C@H](CC(C)C)C(=O)N[C@H]1C(=O)N[C@@H](CC(N)=O)C(=O)N[C@H]2C(=O)N[C@H]3C(=O)N[C@H](C(=O)N[C@H](C(=O)O)c4cc(O)cc(O)c4-c4cc3ccc4O)[C@H](O)c3ccc(c(Cl)c3)Oc3cc2cc(c3O[C@@H]2O[C@H](CO)[C@@H](O)[C@H](O)[C@H]2O[C@H]2C[C@](C)(N)[C@H](O)[C@H](C)O2)Oc2ccc(cc2Cl)[C@H]1O [Vancomycin]
Zone of inhibition, MRSA-206 [1]: 15 mm | Zone of inhibition, MRSA-575 [2]: 17 mm | Zone of inhibition, MRSA-596 [3]: 23 mm
